Measured values as given in patent US20160052926A1, “NOVEL PYRIMIDINE AND PYRIDINE COMPOUNDS AND USAGE THEREOF” (HUTCHISON MEDIPHARMA LIMITED, priority 2013, published 2016).
Read-outs that look alike come from different tables or passages of the source.

Legend:
[1] = target: Recombinant human FGFR1 (Homo sapiens, UniProt P11362); assay: Transcreener Kinase Assay of FGFR1; assay type: biochemical
Procedure: Transcreener Kinase Assay of FGFR1
(§1) Prepare Solution • Compounds were solved in DMSO and were diluted with assay buffer to 5 folds of final concentration keeping the DMSO concentration at 5%. Further dilution are needed to make final concentrations are at 1, 0.33, 0.11, 0.037, 0.012, 0.004, 0.0014, 0.0005 μM; (the final concentration of DMSO is 1%). • Enzyme/Substrate stock Preparation: Recombinant human FGFR1 and Poly E4Y are both diluted in assay buffer.
(§2) Enzymatic Reaction • In a 96-well plate, Add 5 μL of compound or control. (positive control: 5 μL of 5% DMSO; negative control: 5 μL of 500 mM EDTA) into desired wells; • Add 10 μL of Enzyme/Substrate stock into each well; • Add 10 μL of ATP Diluents to initiate the enzyme reaction and votex the plate immediately on a plate shaker; • For the wells to make standard curve, add 5 μL of 5% DMSO, 10 μL of assay buffer and 10 μL of ATP standard curve stock. • Incubate the plate for 45 min at 28[…] on a plate shaker in a low speed.
Excitation wavelength: 610 nm, Emission wavelength: 670 nm.
(§3) • [ADP] in Compound well represents the ADP concentration in compound well. • [ADP] in Positive control well represents the ADP concentration in 5% DMSO well • Conversion of mP value to ADP concentration is calculated based on the formula which determined by standard curve. And mP value is measured by following the instruction provided by BellBrook Labs. (www.bellbrooklabs.com). 6. IC50: calculated using XL-Fit 2.0 software.

[2] = target: FGFR3 kinase (Homo sapiens, UniProt P22607); assay: Z-Lyte Kinase Assay of FGFR3; assay type: biochemical
Sequence of FGFR3 kinase (P22607 23-806): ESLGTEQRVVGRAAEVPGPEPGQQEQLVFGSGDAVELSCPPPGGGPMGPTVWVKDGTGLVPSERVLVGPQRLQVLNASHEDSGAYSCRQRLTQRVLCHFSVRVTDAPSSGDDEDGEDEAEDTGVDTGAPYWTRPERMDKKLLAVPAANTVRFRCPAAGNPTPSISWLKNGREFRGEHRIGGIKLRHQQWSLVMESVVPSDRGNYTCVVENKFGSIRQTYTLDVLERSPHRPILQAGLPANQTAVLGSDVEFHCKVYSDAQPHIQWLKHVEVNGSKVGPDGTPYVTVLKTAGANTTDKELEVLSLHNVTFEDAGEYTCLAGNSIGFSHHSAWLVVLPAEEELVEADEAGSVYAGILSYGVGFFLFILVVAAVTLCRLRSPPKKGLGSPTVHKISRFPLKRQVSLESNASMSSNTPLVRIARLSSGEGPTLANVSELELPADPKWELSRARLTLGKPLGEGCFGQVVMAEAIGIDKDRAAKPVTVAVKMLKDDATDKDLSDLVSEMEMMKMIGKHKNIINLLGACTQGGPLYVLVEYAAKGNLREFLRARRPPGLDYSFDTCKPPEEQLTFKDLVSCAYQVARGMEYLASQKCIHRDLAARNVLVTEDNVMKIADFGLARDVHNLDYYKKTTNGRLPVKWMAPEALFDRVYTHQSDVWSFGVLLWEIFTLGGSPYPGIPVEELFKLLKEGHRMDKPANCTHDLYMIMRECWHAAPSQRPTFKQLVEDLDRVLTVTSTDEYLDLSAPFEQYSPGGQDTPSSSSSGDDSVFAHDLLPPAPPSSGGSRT
Procedure: Z-Lyte Kinase Assay of FGFR3
The final concentrations are 1, 0.33, 0.11, 0.037, 0.012, 0.004, 0.0014, 0.00046 μM, and the final concentration of DMSO is 2%. • 3) Kinase/Peptide Mixture (P/K solution): Prepare Kinase/Peptide Mixture by diluting the kinase to 0.7 μg/ml and the Z-LYTE™ Tyr 4 peptide to 4 μM in 1.33× Kinase Buffer. Mix gently by pipetting. • 4) Phospho-peptide Solution (PP solution): Add 0.4 μl of Z-LYTE™ Tyr 4 Phospho-peptide to 99.6 μl of 1.33× Kinase Buffer. • 5) ATP Solution: Prepare ATP Solution by diluting the 10 mM of ATP in 1.33× Kinase Buffer to 300 uM. • 6) Development Solution: Dilute Development Reagent B with Development Buffer as 1:128.
Shake the plate for 30 Sec and centrifuge (1500 rpm, 1 min) • Seal the plate to protect from the light and incubate the plate for 1 hour at RT (25-30[…]) • 2) Development reaction • Add 5 μl of the Development solution to all wells • Shake the plate for 30 Sec and centrifuge (1500 rpm, 1 min) • Seal the plate to protect from the light and incubate the plate for 1 hour at RT (25-30[…]) • 3) Stop and read • Add 5 μl of the Stop reagent to all wells • Shake the plate for 30 Sec and centrifuge (1500 rpm, 1 min) • Measure the value of Coumarin (Ex400 nm, Em445 nm) and fluorescein (Ex400 nm, Em520 nm), respectively.
Inhibition rate(IR)=1−%Photest Cpd/%PhoC2
• determined with add-in software for Microsoft Excel, XLfit™ (version 2.0) from ID Business Solutions (Guildford, UK)

[3] = target: Recombinant human FGFR2 (Homo sapiens, UniProt P21802); assay: Transcreener Kinase Assay of FGFR2; assay type: biochemical
Sequence of Recombinant human FGFR2 (P21802 22-821): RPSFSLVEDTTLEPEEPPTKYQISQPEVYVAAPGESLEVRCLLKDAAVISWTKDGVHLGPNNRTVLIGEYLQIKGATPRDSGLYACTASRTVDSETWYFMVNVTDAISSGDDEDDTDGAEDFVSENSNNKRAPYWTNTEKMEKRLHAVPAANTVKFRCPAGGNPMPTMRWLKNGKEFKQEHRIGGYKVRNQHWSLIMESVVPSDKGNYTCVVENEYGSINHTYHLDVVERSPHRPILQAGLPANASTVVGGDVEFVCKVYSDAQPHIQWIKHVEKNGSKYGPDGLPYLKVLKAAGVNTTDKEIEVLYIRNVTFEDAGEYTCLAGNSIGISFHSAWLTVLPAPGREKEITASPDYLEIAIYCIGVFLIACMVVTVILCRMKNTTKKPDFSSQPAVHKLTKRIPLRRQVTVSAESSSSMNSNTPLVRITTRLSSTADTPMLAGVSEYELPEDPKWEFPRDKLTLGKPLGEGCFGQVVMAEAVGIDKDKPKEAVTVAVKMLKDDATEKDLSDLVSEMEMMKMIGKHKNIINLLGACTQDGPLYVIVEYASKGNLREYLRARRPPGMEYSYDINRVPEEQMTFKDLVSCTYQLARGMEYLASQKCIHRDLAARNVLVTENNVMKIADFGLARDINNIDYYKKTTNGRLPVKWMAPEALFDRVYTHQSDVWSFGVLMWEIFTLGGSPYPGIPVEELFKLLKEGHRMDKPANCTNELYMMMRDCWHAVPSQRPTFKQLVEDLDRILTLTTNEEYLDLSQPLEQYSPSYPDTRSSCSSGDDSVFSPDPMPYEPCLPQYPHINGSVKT
Procedure: Transcreener Kinase Assay of FGFR2
as §1, with “•” for “Prepare Solution •”, “FGFR2” for “FGFR1”, “buffer. The final concentration is 0.3 ng/μL for FGFR2 and 62.5 ng/μL for Poly E4Y. The mixture is being kept in ice before use; • Prepare ATP Diluents, 10 mM ATP is diluted in assay buffer, the final concentration is 25 μM; • Prepare ADP Diluents: diluted ADP (500 μM) in assay buffer, the final concentration is 25 μM; • Prepare ATP standard curve stock as following:” for “buffer.”
as §2, with “•” for “Enzymatic Reaction •”
• Detection Mix Preparation: The mixture is made by dilution with MilliQ water; as following: ADP Alexa633 tracer (1:100), ADP antibody (1:158), and stop & detect buffer (1:10); • Tracer Only control Preparation: The mixture is made by dilution with MilliQ water; as following: ADP Alexa633 tracer (1:100), and stop & detect buffer (1:10) • No Tracer control Preparation: stop & detect buffer is diluted with MilliQ water; by 10 fold. • Add 25 μL of detection mix, Tracer Only control and No Tracer control into corresponding wells, respectively; • Incubate at 28 °C for 1 h, on a plate shaker in a low speed; • Measure florescence polarization (FP) on TECAN F500. Excitation wavelength: 610 nm, Emission wavelength: 670 nm.
as §3

[4] = test system: KG-1; assay: Cellular Proliferation Assay (Cell Counting Kit-8), KG-1; assay type: cell-based; conditions: Homo sapiens, KG1 cells, 72 hours
Procedure: (§4) Cellular Proliferation Assay
(§5) • KG-1 (ATCC Accession No. CCL-246), • SNU-16 (ATCC Accession No. CRL-5974), • RT-112 (ECACC Accession No. 85061106)
(§6) • FGFR related cancer cell proliferation is measured in 96-well plates using Cell Counting Kit-8 (Dojindo CK04-13). • Seed 30000 cells/well of KG1, 5000 cells/well of SNU16, and 1000 cells/well of RT112 in a volume of 100 μL/well in growth media. • After 24 hours, dilute the compound to 10, 3.3, 1.1, 0.37, 0.12, 0.04, 0.013, 0.004 μM, keeping the DMSO concentration at 5%. • Add 10 μL of 8-point compound series to the wells of culturing cells. • Incubate at 37° C. and 5% CO2 for 72 hours • Add 10 μL/well of CCkit8 and incubate at 37° C. and 5% CO2 for an hour • Detect the optical density of each well at 450 nm on Labsystems Multiskan K3.
(§7) • ODcompound well represents the optical density of cells treated with compound. • ODcell well represents the optical density of cells without compounds treatment. (only 0.5% DMSO) • ODcontrol well represents the optical density of culture media background
(§8) The concentration of compound providing 50% of proliferation inhibition was calculated using Excel Fit.

[5] = test system: SNU-16; assay: Cellular Proliferation Assay (Cell Counting Kit-8), SNU-16; assay type: cell-based; conditions: Homo sapiens, SNU-16 cells, 72 hours
Procedure: as §4, §5, §6, §7, §8

[6] = test system: RT-112; assay: Cellular Proliferation Assay (Cell Counting Kit-8), RT-112; assay type: cell-based; conditions: Homo sapiens, RT-112 cells, 72 hours
Procedure: as §4, §5, §6, §7, §8

Sequence of Recombinant human FGFR1 (P11362 22-822): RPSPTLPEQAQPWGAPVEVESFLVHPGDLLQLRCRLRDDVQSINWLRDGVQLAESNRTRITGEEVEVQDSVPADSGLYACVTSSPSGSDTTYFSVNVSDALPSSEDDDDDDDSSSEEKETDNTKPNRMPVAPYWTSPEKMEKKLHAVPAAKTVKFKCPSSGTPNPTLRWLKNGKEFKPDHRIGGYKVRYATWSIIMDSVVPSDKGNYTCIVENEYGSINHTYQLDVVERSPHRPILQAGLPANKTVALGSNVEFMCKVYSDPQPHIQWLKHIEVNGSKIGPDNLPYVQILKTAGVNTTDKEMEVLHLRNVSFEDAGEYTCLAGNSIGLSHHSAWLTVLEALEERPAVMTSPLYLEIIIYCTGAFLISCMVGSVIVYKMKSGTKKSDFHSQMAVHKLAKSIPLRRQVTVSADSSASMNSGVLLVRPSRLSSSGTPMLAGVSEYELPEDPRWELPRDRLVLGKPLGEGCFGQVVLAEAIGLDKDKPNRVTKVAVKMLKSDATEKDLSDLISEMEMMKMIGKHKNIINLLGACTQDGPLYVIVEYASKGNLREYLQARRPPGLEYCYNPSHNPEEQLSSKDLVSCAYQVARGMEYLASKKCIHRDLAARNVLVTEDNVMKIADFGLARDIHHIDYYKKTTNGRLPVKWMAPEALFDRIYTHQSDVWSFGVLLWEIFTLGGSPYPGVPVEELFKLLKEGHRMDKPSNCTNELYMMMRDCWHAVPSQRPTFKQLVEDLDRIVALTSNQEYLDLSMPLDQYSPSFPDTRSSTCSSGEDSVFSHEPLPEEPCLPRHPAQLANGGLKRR

IC50 ([1]; read-out: FGFR1 (FP) IC50) [nM]	IC50 [2] [nM]	IC50 ([3]; read-out: FGFR2 (FP) IC50) [nM]	IC50 [5] [nM]	Compound	IC50 [4] [nM]	IC50 [6] [nM]	IC50 ([1]; FGFR1 (FP) IC50) [nM]	IC50 ([3]; FGFR2 (FP) IC50) [nM]
29	7	10	21	CCN(CC)CCCn1cc(Nc2ncc(CCc3cc(C(=O)NC)cc(OC)c3F)cn2)cn1 [Compound 13]	498	59		
12	7	6	29	CNC(=O)c1cc(CCc2cnc(Nc3cnn(CC4CCN(C)CC4)c3)nc2)c(F)c(OC)c1 [Compound 137]	319	86		
5	10	3	112	CONC(=O)c1cc(CCc2cnc(Nc3cnn(CCO)c3)nc2)cc(OC)c1 [Compound 108]	110	562		
20	27	12	29	CNC(=O)c1cc(CCc2cnc(Nc3ccc(C)nc3)nc2)c(F)c(OC)c1 [Compound 26]	48	93		
				CNC(=O)c1cc(CCc2cnc(Nc3cnn(CC4CC4)c3)nc2)c(F)c(OC)c1 [Compound 141, 3-(2-(2-(1-(cyclopropylmethyl)-1H-pyrazol-4-ylamino)pyrimidin-5-yl)ethyl)-4-fluoro-5-methoxy-N-methylbenzamide]	15	112	11	5
9		7	10	CCn1cc(Nc2ncc(OCc3cc(C(=O)NC)cc(OC)c3Cl)cn2)cn1 [Compound 184]	5	53		
7		5	8	CNC(=O)c1cc(COc2cnc(Nc3cnn(C)c3)nc2)c(Cl)c(OC)c1 [Compound 183]	9	14		
54	62	17	158	CNC(=O)c1cc(CCc2cnc(Nc3ccnnc3)nc2)c(F)c(OC)c1 [Compound 61]	400			
4	9	6	12	CCN1CCN(c2ccc(Nc3ncc(CCc4cc(OC)cc(C(=O)NOC)c4)cn3)cc2)CC1 [Compound 17]	9			
63	119	44	150	CNC(=O)c1cc(CCc2cnc(Nc3ccc4nnnn4c3)nc2)c(F)c(OC)c1 [Compound 96]	161			
10	35	7	33	CONC(=O)c1cc(CCc2cnc(Nc3ccc(OC)cc3)nc2)cc(OC)c1 [Compound 106]	40			
			134	CCn1cc(Nc2ncc(/C=C/c3cc(C(=O)NC)cc(OC)c3Br)cn2)cn1 [Compound 3]	72	370		
5	4	3	12	CCN1CCN(c2cc(F)cc(Nc3ncc(CCc4cc(OC)cc(C(=O)NOC)c4)cn3)c2)CC1 [Compound 77]	11			
47	94	27	151	CONC(=O)c1cc(CCc2cnc(Nc3ccn(C)n3)nc2)cc(OC)c1 [Compound 24]	122			
8	14	9	32	CCN1CCN(c2ccc(Nc3ncc(CCc4cc(C(=O)NC5CC5)cc(OC)c4F)cn3)cc2)CC1 [Compound 57]	16			
132	61	34	113	CCN1CCN(c2ccc(Nc3ncc(CCc4cc(OC)cc(C(=O)NC5CC5)c4)cn3)cc2)CC1 [Compound 46]	59			
38	64	28	44	CCN1CCN(c2cccc(Nc3ncc(CCc4cc(OC)cc(C(=O)NC)c4)cn3)c2)CC1 [Compound 9, 3-(2-(2-((3-(4-ethylpiperazin-1-yl)phenyl)amino)pyrimidin-5-yl)ethyl)-5-methoxy-N-methylbenzamide]	98			
5	15	5	16	CCN1CCN(c2ccc(Nc3ncc(CCc4cc(OC)cc(C(=O)NOC)c4)cn3)cc2)C[C@H]1C [Compound 48]	11			

Compound	IC50 ([1]; read-out: FGFR1 (FP) IC50) [nM]	IC50 [2] [nM]	IC50 ([3]; read-out: FGFR2 (FP) IC50) [nM]	IC50 [5] [nM]	IC50 [4] [nM]	IC50 [6] [nM]	IC50 ([1]; FGFR1 (FP) IC50) [nM]	IC50 ([3]; FGFR2 (FP) IC50) [nM]
CCS(=O)(=O)n1cc(Nc2ncc(CCc3cc(C(=O)NC)cc(OC)c3F)cn2)cn1 [Compound 140, 3-(2-(2-(1-(ethylsulfonyl)-1H-pyrazol-4-ylamino)pyrimidin-5-yl)ethyl)-4-fluoro-5-methoxy-N-methylbenzamide]		60	16	62	152	438		
